According to US10087167B2, “Benzofurans substituted with secondary benzamide as HCV inhibitors” (priority 2015, dated 2018):

System: HCV replicon
Test: HCV replicon luciferase assay
Assay type: cell-based
Settings: Hepatitis C virus, Huh-7, 72 h
Experimental: The cell lines used to evaluate compounds consist of a human hepatocyte derived cell line (Huh-7) that constitutively expresses a genotype 1b (Con-1) HCV replicon or a genotype 1b (Con-1) HCV replicon with an asparagine replacing the cysteine at amino acid 316, or a genotype 2a (JFH-1) replicon, containing a Renilla luciferase reporter gene. These cells were maintained in Dulbecco's modified Eagle medium (DMEM) containing 10% FBS, 100 U/mL penicillin/streptomycin and 1.0 mg/mL G418.
To evaluate compound efficacy, titrated compounds were transferred to sterile 384-well tissue culture treated plates, and the plates were seeded with HCV replicon cells (50 μL at a density of 2.4×10^3 cells/well) in DMEM containing 4% FBS (final DMSO concentration at 0.5%). After 3 days incubation at 37° C., cells were analyzed for Renilla Luciferase activity using the EnduRen substrate (Promega cat #E6485) according to the manufacturer's directions. Briefly, the EnduRen substrate was diluted in DMEM and then added to the plates to a final concentration of 7.5 μM. The plates were incubated for at least 1 h at 37° C. then read on a Viewlux Imager (PerkinElmer) using a luminescence program. The 50% effective concentration (EC50) was calculated using the four-parameter logistic formula noted above.
Compound EC50 data is expressed as A: <100 nM; B=100-1000 nM; C>1000 nM).

Molecule | EC50
CCN(CC)c1cc2oc(-c3ccc(F)cc3)c(C(=O)NC)c2cc1-c1cccc(C(=O)N2CC(F)(F)C2)c1 [Compound 1001] | 45.4 nM
CCNc1cc2oc(-c3ccc(F)cc3)c(C(=O)NC)c2cc1-c1cccc(C(=O)N2CCNC(C#N)C2)c1 (stereo not shown) [Compound 2001] | 100 to 1000 nM
CCN(c1cc2oc(-c3ccc(F)cc3)c(C(=O)NC)c2cc1-c1cccc(C(=O)N2CCN(C(=O)OC(C)(C)C)C[C@@H]2C#N)c1)S(C)(=O)=O [Compound 3001] | < 100 nM
CCN(c1cc2oc(-c3ccc(F)cc3)c(C(=O)NC)c2cc1-c1cccc(C(=O)N2CCN(C(=O)OC(C)(C)C)C[C@H]2C#N)c1)S(C)(=O)=O [Compound 3002] | < 100 nM
CCN(c1cc2oc(-c3ccc(F)cc3)c(C(=O)NC)c2cc1-c1cccc(C(=O)N2CCN(S(C)(=O)=O)C(C#N)C2)c1)S(C)(=O)=O (stereo not shown) [Compound 3003] | 25.2 nM
CNC(=O)c1c(-c2ccc(F)cc2)oc2cc(N(CCF)S(C)(=O)=O)c(-c3cccc(C(=O)N4CCN(C(=O)C(F)(F)F)CC4)c3)cc12 [Compound 4001] | > 1000 nM
CNC(=O)c1c(-c2ccc(F)cc2)oc2cc(N(CCF)S(C)(=O)=O)c(-c3cccc(C(=O)N4CCN(C5CC5)CC4)c3)cc12 [Compound 4002] | < 100 nM
CNC(=O)c1c(-c2ccc(F)cc2)oc2cc(N(CCF)S(C)(=O)=O)c(-c3cccc(C(=O)N4CCN(c5ncccn5)CC4)c3)cc12 [Compound 4003] | < 100 nM
CNC(=O)c1c(-c2ccc(F)cc2)oc2cc(N(CCF)S(C)(=O)=O)c(-c3cccc(C(=O)N4CCN(C(=O)N5CCOCC5)CC4)c3)cc12 [Compound 4004] | 1690 nM
CNC(=O)c1c(-c2ccc(F)cc2)oc2cc(N(CCF)S(C)(=O)=O)c(-c3cccc(C(=O)N4CCN(C(=O)OC(C)(C)C)CC4CC(=O)OC)c3)cc12 (stereo not shown) [Compound 4005] | < 100 nM
CNC(=O)c1c(-c2ccc(F)cc2)oc2cc(N(CCF)S(C)(=O)=O)c(-c3cccc(C(=O)N4CCN(/C(=N/C#N)c5ccccc5)CC4)c3)cc12 [Compound 4006] | 100 to 1000 nM
CNC(=O)c1c(-c2ccc(F)cc2)oc2cc(N(CCF)S(C)(=O)=O)c(-c3cccc(C(=O)N4CCN(C(=C(C#N)C#N)c5ccccc5)CC4)c3)cc12 [Compound 4007] | < 100 nM
CNC(=O)c1c(-c2ccc(F)cc2)oc2cc(N(CCF)S(C)(=O)=O)c(-c3cccc(C(=O)N4CCN(c5nnnn5-c5ccccc5)CC4)c3)cc12 [Compound 4008] | 107 nM
CNC(=O)c1c(-c2ccc(F)cc2)oc2cc(N(CCF)S(C)(=O)=O)c(-c3cccc(C(=O)N4CCN(c5nnnn5-c5ccccc5)C[C@@H]4C)c3)cc12 [Compound 4009] | < 100 nM
CNC(=O)c1c(-c2ccc(F)cc2)oc2cc(N(CCF)S(C)(=O)=O)c(-c3cccc(C(=O)N4CCN(c5nnnn5-c5ccccc5)[C@H](C)C4)c3)cc12 [Compound 4010] | < 100 nM
CNC(=O)c1c(-c2ccc(F)cc2)oc2cc(N(CCF)S(C)(=O)=O)c(-c3cccc(C(=O)N4CCC(=C(c5ccccc5)c5ccccc5)CC4)c3)cc12 [Compound 4011] | < 100 nM

Molecule | EC50
CNC(=O)c1c(-c2ccc(F)cc2)oc2cc(N(CCF)S(C)(=O)=O)c(-c3cccc(C(=O)N4CCC(=C(c5ccccc5)c5nnc(C)o5)CC4)c3)cc12 [Compound 4012] | 27.1 nM
CNC(=O)c1c(-c2ccc(F)cc2)oc2cc(N(CCF)S(C)(=O)=O)c(-c3cccc(C(=O)N4CCC(=C(C#N)c5ccccc5)CC4)c3)cc12 [Compound 4013] | < 100 nM
CNC(=O)c1c(-c2ccc(F)cc2)oc2cc(N(CCF)S(C)(=O)=O)c(-c3cccc(C(=O)N4CCC(=C(C#N)c5ccccn5)CC4)c3)cc12 [Compound 4014] | < 100 nM
CNC(=O)c1c(-c2ccc(F)cc2)oc2cc(N(CCF)S(C)(=O)=O)c(-c3cccc(C(=O)N4CCCC4C(F)(F)F)c3)cc12 (stereo not shown) [Compound 4015] | < 100 nM
CNC(=O)c1c(-c2ccc(F)cc2)oc2cc(N(CCF)S(C)(=O)=O)c(-c3cccc(C(=O)N4CCCC4c4ccc(N(C)C)cc4)c3)cc12 (stereo not shown) [Compound 4016] | 84.8 nM
CNC(=O)c1c(-c2ccc(F)cc2)oc2cc(N(CCF)S(C)(=O)=O)c(-c3cccc(C(=O)N4CCC[C@@H]4C(N)=O)c3)cc12 [Compound 4017] | > 1000 nM
CNC(=O)c1c(-c2ccc(F)cc2)oc2cc(N(CCF)S(C)(=O)=O)c(-c3cccc(C(=O)N4CC(O)C[C@H]4C(=O)OCc4ccccc4)c3)cc12 (stereo partly shown) [Compound 4018] | 100 to 1000 nM
CNC(=O)c1c(-c2ccc(F)cc2)oc2cc(N(CCF)S(C)(=O)=O)c(-c3cccc(C(=O)N4CC(F)(F)C[C@H]4C(N)=O)c3)cc12 [Compound 4019] | > 1000 nM
CNC(=O)c1c(-c2ccc(F)cc2)oc2cc(N(CCF)S(C)(=O)=O)c(-c3cccc(C(=O)N4CC[C@H](F)C4)c3)cc12 [Compound 4020] | 45 nM
CNC(=O)c1c(-c2ccc(F)cc2)oc2cc(N(CCF)S(C)(=O)=O)c(-c3cccc(C(=O)N4CC[C@@H](C#N)C4)c3)cc12 [Compound 4021] | > 1000 nM
CNC(=O)c1c(-c2ccc(F)cc2)oc2cc(N(CCF)S(C)(=O)=O)c(-c3cccc(C(=O)N4CCC(NC(=O)OC(C)(C)C)(C(F)(F)F)C4)c3)cc12 (stereo not shown) [Compound 4022] | < 100 nM
CNC(=O)c1c(-c2ccc(F)cc2)oc2cc(N(CCF)S(C)(=O)=O)c(-c3cccc(C(=O)N4CCCC4c4nccs4)c3)cc12 (stereo not shown) [Compound 4023] | < 100 nM
CNC(=O)c1c(-c2ccc(F)cc2)oc2cc(N(CCF)S(C)(=O)=O)c(-c3cccc(C(=O)N4CC[C@@H](F)C4)c3)cc12 [Compound 4024] | 76.5 nM
CNC(=O)c1c(-c2ccc(F)cc2)oc2cc(N(CCF)S(C)(=O)=O)c(-c3cccc(C(=O)N4CC(F)(F)C(F)(F)C4)c3)cc12 [Compound 4025] | < 100 nM
CNC(=O)c1c(-c2ccc(F)cc2)oc2cc(N(CCF)S(C)(=O)=O)c(-c3cccc(C(=O)N4CCNC(=O)C45CCCC5)c3)cc12 [Compound 4026] | < 100 nM
CCOC(=O)CC1C(=O)NCCN1C(=O)c1cccc(-c2cc3c(C(=O)NC)c(-c4ccc(F)cc4)oc3cc2N(CCF)S(C)(=O)=O)c1 (stereo not shown) [Compound 4027] | > 1000 nM

System: HCV
Test: not given
Settings: extended dosing of the combination regimens; cited from earlier work

Molecule | hepatic toxicity
CNC(=O)c1c(-c2ccc(F)cc2)oc2cc(N(CCO)S(C)(=O)=O)c(C3CC3)cc12 [HCV-796] | hepatic toxicity observed

System: HCV
Test: not given
Settings: combination therapy; cited from earlier work

Molecule | sustained efficacy
alpha-interferon and ribavirin | 40 % of patients
